Assay results taken from patent US9351955B2, “Compounds and pharmaceutical compositions thereof for the treatment of cystic fibrosis” (Galapagos NV, priority 2013, dated 2016).

How the values were obtained:
CFTR ΔF508 mutant [1] = target: T1, CFTR ΔF508 mutant (Homo sapiens, UniProt P13569, DEL508-508); test: YFP-halide influx assay for the CFTR-ΔF508 mutation (96 well, CFBE41o- cells); format: cell-based; details: compounds of the invention, 96 well, forskolin 10.67 μM, read-out: EC50 measured by YFP-halide influx assay for the CFTR-ΔF508
T1 construct: expressed in transfected cells; host or cells: CFBE41o- (adenoviral transduction)
Outline: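 CFBE41o- cells were adenovirally transduced with CFTR ΔF508 and the halide-sensitive YFP H148Q/I152L. They were then corrected either at 27 °C for 24 h or with a CFTR modulator for 24 h at 37 °C. After iodide injection, YFP quenching over 7 s was expressed as 1−F/F0, and EC50 was derived from the concentration–response plot.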

CFTR ΔF508 mutant [2] = target: T1, CFTR ΔF508 mutant; test: YFP-halide influx assay for the CFTR-ΔF508 mutation (384 well, CFBE41o- cells, FDSS/μCell); format: cell-based; details: forskolin 10.67 μM, fluorescence after 36 seconds, read-out: EC50 measured by YFP-halide influx assay for the CFTR-ΔF508
Outline: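 CFBE41o- cells were adenovirally transduced with ΔF508 CFTR and the YFP H148Q/I152L reporter. Cells were then held 24 h at 27 °C or treated 24 h at 37 °C with a CFTR modulator. Iodide-induced quench was recorded for 2 min, and EC50 was derived from 1−F/F0 at 36 s against compound concentration.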

CFTR G551D mutant = target: T2, CFTR G551D mutant (Homo sapiens, UniProt P13569, G551D); test: YFP-halide influx assay for the CFTR-G551D mutation (HEK293 cells); format: cell-based; details: HEK293 cells expressing CFTR G551D and YFP reporter; forskolin 10.67 μM; read-out: EC50 measured by YFP-halide influx assay for the CFTR-G551D
T2 construct: expressed in transfected cells; host or cells: HEK293 (reverse transfection with plasmids)
Outline: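 HEK293 cells reverse-transfected with CFTR G551D and halide-sensitive YFP, expressed 24 h at 37 °C. Iodide-induced fluorescence quench recorded for 7 s after I^− injection; response as 1−F/F0, EC50 from concentration plot.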

Lung distribution study = format: in vivo, Sprague-Dawley rats; details: male, Sprague-Dawley, rat, plasma, oral, 10 mg/kg, exposure values
Protocol: Sprague-Dawley rats (male, 5-6 weeks old) are obtained from Janvier (France). Rats are acclimatized for at least 5 days before treatment and are kept on a 12 h light/dark cycle. Temperature is maintained at approximately 22° C., and food and water are provided ad libitum. Two days before administration of the test compounds, rats may undergo surgery to place a catheter in the jugular vein under isoflurane anesthesia. After the surgery, rats are housed individually. Rats are deprived of food for at least 16 h before oral dosing and 6 h after. Water is provided ad libitum.
8.7.3. Lung Distribution Studies
Compounds are formulated in 0.5% methylcellulose and EtOH/PEG 200/Methylcellulose 0.5% (10/25/65 v/v/v) by the oral route. Test compounds are orally dosed as a single esophageal gavage at 10 mg/kg under a dosing volume of 5 mL/kg. Each group consists of 12 rats. At each time point, typically 1, 3, 6 and 24 h, animals are euthanized and blood and lung samples are collected. Whole blood samples are centrifuged at 1500 g for 10 min and the resulting plasma samples, along with the lung samples, are stored at −20° C. pending analysis.
8.7.4. Quantification of Compound Levels in Plasma and Lung Samples
Lung samples are milled in the presence of ceramic beads and proteins present in plasma and lung samples are precipitated with an organic solvent. Concentrations of each test compound are determined by an LC-MS/MS method in which the mass spectrometer is operated in positive or negative electrospray mode.
For each animal, the lung-to-plasma ratio is determined as the ratio between compound concentration in lung and in plasma. At each sampling time point, mean, standard error of the mean (sem) and coefficient of variation (CV %) are calculated using data from three animals.

CFTR G551D = CFTR G551D (Homo sapiens, UniProt P13569, G551D); test: TECC assay, FRT cells stably transfected with G551D CFTR; format: cell-based; details: high expression CFTR-G551D cells, several values in a cell = repeat determinations
Protocol: 7.2.3. FRT-CFTR G551D Protocol
For G551D recordings, Fish Rat Thyroid (FRT) cells stably transfected with G551D CFTR (a low CFTR-G551D expressing cell line and a high expressing CFTR-G551D cell line from Rosalind Franklin University of medicine and science, Chicago, Ill.) are plated on Transwell supports (Costar 6.5 mm Diameter, […]). The cells are grown for 8-10 d under liquid-liquid interface conditions prior to electrophysiological readings. For electrophysiological recording, the FRT-G551D cells are mounted in the TECC heating plate for electrophysiological measurement and kept at 37° C. The epithelia are bathed in hepes buffered culturing medium without FBS on both the basolateral and apical sides. Apical amiloride is used to inhibit the endogenous ENaC currents while forkolin is applied on both apical and basolateral side to stimulate CFTR. After forskolin triggering, compounds are added on both sides to test their potential for increasing CFTR gating. Measurements are done during a 10 minute timeframe with recordings every 2 min. The increase in ISC is used as a measure for the increased CFTR activity, EC50 values can be generated by measuring impact of different concentrations of compound on ISC on the cells, for this purpose each transwell is treated with a different compound concentration. Inh-172, an inhibitor specific for CFTR, is used to test the specificity of the tested compounds.
When subjected to this protocol, the following EC50 are measured.

T1 sequence (P13569 with tags, fused parts or gaps DEL508-508): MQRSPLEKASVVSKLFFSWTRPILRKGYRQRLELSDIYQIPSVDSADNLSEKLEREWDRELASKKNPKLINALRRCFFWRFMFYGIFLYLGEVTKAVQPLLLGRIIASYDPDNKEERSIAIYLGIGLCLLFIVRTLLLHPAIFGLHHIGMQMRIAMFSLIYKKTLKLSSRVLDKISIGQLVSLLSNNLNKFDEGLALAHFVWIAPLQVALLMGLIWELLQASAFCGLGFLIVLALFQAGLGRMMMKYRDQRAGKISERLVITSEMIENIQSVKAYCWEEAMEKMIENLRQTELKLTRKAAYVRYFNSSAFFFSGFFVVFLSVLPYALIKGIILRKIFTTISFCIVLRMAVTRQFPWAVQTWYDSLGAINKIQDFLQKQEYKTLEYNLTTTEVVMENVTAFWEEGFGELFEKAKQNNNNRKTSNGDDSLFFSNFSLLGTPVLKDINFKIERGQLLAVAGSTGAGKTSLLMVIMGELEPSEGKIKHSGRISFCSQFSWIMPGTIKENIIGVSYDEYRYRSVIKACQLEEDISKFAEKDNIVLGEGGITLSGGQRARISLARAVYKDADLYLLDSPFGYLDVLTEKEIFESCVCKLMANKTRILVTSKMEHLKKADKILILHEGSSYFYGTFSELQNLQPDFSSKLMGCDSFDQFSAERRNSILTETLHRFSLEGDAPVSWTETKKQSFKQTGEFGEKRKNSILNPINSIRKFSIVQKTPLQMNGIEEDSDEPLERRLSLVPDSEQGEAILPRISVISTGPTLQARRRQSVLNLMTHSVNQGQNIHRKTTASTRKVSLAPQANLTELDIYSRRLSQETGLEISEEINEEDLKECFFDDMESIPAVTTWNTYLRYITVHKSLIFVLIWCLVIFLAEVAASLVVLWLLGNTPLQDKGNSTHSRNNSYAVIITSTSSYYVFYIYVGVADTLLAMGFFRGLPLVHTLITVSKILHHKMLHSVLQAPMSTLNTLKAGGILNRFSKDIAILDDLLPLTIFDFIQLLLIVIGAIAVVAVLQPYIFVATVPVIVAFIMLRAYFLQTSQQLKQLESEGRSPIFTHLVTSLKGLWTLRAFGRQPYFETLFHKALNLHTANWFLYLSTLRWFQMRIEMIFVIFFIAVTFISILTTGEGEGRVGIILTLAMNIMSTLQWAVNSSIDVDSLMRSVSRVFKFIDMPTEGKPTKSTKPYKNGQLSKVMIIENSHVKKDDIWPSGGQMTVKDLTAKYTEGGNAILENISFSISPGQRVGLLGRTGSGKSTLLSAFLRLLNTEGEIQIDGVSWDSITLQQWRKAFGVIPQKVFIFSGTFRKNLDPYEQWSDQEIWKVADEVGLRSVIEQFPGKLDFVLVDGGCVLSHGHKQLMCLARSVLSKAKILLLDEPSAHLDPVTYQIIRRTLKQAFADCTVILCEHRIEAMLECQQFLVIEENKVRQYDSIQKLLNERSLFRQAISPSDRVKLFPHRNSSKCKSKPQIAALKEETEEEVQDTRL
T2 sequence (P13569 whole entry G551D): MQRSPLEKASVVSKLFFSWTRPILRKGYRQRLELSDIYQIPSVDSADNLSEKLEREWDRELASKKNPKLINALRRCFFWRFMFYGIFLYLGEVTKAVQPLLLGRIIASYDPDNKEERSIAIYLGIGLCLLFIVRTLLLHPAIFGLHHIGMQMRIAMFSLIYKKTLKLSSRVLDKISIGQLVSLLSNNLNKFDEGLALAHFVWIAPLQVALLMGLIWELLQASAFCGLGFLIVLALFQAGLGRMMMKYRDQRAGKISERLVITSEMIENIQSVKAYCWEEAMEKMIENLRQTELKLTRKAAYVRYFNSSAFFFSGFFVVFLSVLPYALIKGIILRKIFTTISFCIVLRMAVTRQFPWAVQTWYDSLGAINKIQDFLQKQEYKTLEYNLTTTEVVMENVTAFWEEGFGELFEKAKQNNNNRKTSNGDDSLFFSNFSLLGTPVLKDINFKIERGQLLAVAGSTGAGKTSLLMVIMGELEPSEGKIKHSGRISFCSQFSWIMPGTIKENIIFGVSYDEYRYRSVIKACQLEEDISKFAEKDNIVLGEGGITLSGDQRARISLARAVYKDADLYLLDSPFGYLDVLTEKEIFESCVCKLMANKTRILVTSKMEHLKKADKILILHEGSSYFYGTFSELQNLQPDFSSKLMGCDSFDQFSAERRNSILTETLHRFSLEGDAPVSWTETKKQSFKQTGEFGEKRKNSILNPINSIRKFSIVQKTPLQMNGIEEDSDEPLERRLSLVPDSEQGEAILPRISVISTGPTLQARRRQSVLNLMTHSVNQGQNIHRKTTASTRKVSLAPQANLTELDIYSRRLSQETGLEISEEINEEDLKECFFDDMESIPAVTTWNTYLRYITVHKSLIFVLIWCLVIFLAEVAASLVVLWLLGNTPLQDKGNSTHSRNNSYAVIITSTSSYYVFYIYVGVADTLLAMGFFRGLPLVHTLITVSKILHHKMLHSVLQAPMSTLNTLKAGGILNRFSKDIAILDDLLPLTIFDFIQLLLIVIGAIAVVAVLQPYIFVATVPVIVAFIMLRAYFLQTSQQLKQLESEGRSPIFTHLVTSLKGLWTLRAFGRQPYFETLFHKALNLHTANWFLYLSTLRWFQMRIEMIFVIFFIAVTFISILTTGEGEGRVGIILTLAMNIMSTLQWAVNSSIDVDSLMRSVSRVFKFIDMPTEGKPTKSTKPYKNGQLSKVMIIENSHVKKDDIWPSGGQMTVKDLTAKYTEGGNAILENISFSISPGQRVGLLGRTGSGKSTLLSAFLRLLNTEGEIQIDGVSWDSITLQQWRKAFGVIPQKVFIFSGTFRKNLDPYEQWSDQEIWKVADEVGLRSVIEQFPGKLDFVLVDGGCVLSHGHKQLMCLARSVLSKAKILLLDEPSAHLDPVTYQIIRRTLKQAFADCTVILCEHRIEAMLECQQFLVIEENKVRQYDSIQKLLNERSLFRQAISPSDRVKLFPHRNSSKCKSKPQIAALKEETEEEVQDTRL
CFTR G551D, sequence (P13569 whole entry G551D): as above

Structure (SMILES) | EC50 (CFTR ΔF508 mutant [1]) [µM] | EC50 (CFTR ΔF508 mutant [2]) [µM] | EC50 (CFTR G551D mutant) [µM] | AUC(0-t) (Lung distribution study) [ng·h/mL] | EC50 (CFTR G551D) [µM]
CCc1cc(C(=O)Nc2sc3c(c2C(N)=O)CC(C)(C)OC3(C)C)n[nH]1 [Compound 17, N-(3-carbamoyl-5,5,7,7-tetramethyl-5,7-dihydro-4H-thieno[2,3-c]pyran-2-yl)-5-ethyl-1H-pyrazole-3-carboxamide] | 0.0155 | 0.0103 | 0.193 | 290 | –
CC1(C)Cc2c(sc(NC(=O)c3[nH]ncc3Cl)c2C(N)=O)C(C)(C)O1 [Compound 25, N-(3-carbamoyl-5,5,7,7-tetramethyl-5,7-dihydro-4H-thieno[2,3-c]pyran-2-yl)-4-chloro-1H-pyrazole-3-carboxamide] | 0.00414 | 0.00225 | 0.0806 | 439 | 0.07
